Results taken from patent US11401555B2, “Genetic polymorphisms associated with stroke, methods of detection and uses thereof” (CELERA CORPORATION, priority 2008, dated 2022).

Experiment: Stroke statin response (SSR) in the CARE pravastatin trial: pravastatin-treated versus placebo-treated, by SNP genotype
Type: in vivo, human
Conditions: CARE; for HR: pravastatin vs placebo; for HR (hazard ratio for stroke, pravastatin vs placebo): rs10757274 (hCV26505812), placebo = ref; for EVENTS (number of stroke events): rs10757274, pravastatin arm; for EVENTS: stroke events in pravastatin arm

CC[C@H](C)C(=O)O[C@H]1C[C@H](O)C=C2C=C[C@H](C)[C@H](CC[C@@H](O)C[C@@H](O)CC(=O)O)[C@H]21 [pravastatin]
HR (hCV945276 rs89962 KRT4, DOM, genotype TG + TT, 95% CL 0.48-1.027, p 0.0683): 0.7
HR (hCV945276 rs89962 KRT4, GEN, genotype GG, 95% CL 0.349-1.196, p 0.1641): 0.65
HR (hCV945276 rs89962 KRT4, GEN, genotype TG, 95% CL 0.423-0.979, p 0.0397): 0.64
HR (hCV945276 rs89962 KRT4, GEN, genotype TT, 95% CL 0.392-2.375, p 0.9381): 0.96
HR (hCV945276 rs89962 KRT4, REC, genotype TG + GG, 95% CL 0.458-0.916, p 0.0141): 0.65
HR (hCV1022614 rs220479 ITGAE, DOM, genotype CT + CC, 95% CL 0.541-1.024, p 0.0696): 0.74
HR (hCV1022614 rs220479 ITGAE, GEN, genotype CC, 95% CL 0.609-1.295, p 0.5366): 0.89
HR (hCV1022614 rs220479 ITGAE, GEN, genotype CT, 95% CL 0.257-0.887, p 0.0192): 0.48
HR (hCV1022614 rs220479 ITGAE, GEN, genotype TT, 95% CL 0.203-4.047, p 0.8969): 0.91
HR (hCV1022614 rs220479 ITGAE, REC, genotype CT + TT, 95% CL 0.294-0.921, p 0.0248): 0.52
HR (hCV2091644 rs1010 VAMP8, DOM, genotype CT + CC, 95% CL 0.507-1.126, p 0.1678): 0.76
HR (hCV2091644 rs1010 VAMP8, GEN, genotype CC, 95% CL 0.51-2.73, p 0.6997): 1.18
HR (hCV2091644 rs1010 VAMP8, GEN, genotype CT, 95% CL 0.418-1.045, p 0.0763): 0.66
HR (hCV2091644 rs1010 VAMP8, GEN, genotype TT, 95% CL 0.43-1.186, p 0.1928): 0.71
HR (hCV2091644 rs1010 VAMP8, REC, genotype CT + TT, 95% CL 0.487-0.961, p 0.0284): 0.68
HR (hCV2169762 rs1804689 HPS1, DOM, genotype TG + TT, 95% CL 0.612-1.461, p 0.8004): 0.95
HR (hCV2169762 rs1804689 HPS1, GEN, genotype GG, 95% CL 0.372-0.924, p 0.0214): 0.59
HR (hCV2169762 rs1804689 HPS1, GEN, genotype TG, 95% CL 0.583-1.468, p 0.7398): 0.92
HR (hCV2169762 rs1804689 HPS1, GEN, genotype TT, 95% CL 0.266-3.694, p 0.9903): 0.99
HR (hCV2169762 rs1804689 HPS1, REC, genotype TG + GG, 95% CL 0.529-1.006, p 0.0547): 0.73
HR (hCV2192261 rs3213646 EXOD1, DOM, genotype CT + CC, 95% CL 0.506-1.048, p 0.0882): 0.73
HR (hCV2192261 rs3213646 EXOD1, GEN, genotype CC, 95% CL 0.613-1.799, p 0.8592): 1.05
HR (hCV2192261 rs3213646 EXOD1, GEN, genotype CT, 95% CL 0.328-0.898, p 0.0175): 0.54
HR (hCV2192261 rs3213646 EXOD1, GEN, genotype TT, 95% CL 0.316-1.278, p 0.2036): 0.64
HR (hCV2192261 rs3213646 EXOD1, REC, genotype CT + TT, 95% CL 0.379-0.857, p 0.007): 0.57
HR (hCV7425232 rs3900940 MYH15, DOM, genotype CT + CC, 95% CL 0.468-1.102, p 0.1293): 0.72
HR (hCV7425232 rs3900940 MYH15, GEN, genotype CC, 95% CL 0.461-2.296, p 0.9448): 1.03
HR (hCV7425232 rs3900940 MYH15, GEN, genotype CT, 95% CL 0.365-1.022, p 0.0604): 0.61
HR (hCV7425232 rs3900940 MYH15, GEN, genotype TT, 95% CL 0.442-1.146, p 0.1618): 0.71
HR (hCV7425232 rs3900940 MYH15, REC, genotype CT + TT, 95% CL 0.467-0.939, p 0.0207): 0.66
HR (hCV11450563 rs2038366, DOM, genotype GT + GG, 95% CL 0.567-1.148, p 0.2334): 0.81
HR (hCV11450563 rs2038366, GEN, genotype GG, 95% CL 0.669-1.975, p 0.6132): 1.15
HR (hCV11450563 rs2038366, GEN, genotype GT, 95% CL 0.381-0.986, p 0.0436): 0.61
HR (hCV11450563 rs2038366, GEN, genotype TT, 95% CL 0.472-2.724, p 0.7789): 1.13
HR (hCV11450563 rs2038366, REC, genotype GT + TT, 95% CL 0.463-1.064, p 0.0954): 0.7
HR (hazard ratio for stroke, pravastatin vs placebo) (adjusted (age, male, current smoking, hypertension, diabetes, BMI, baseline LDL, HDL), mode DOM, genotype GA + GG): 0.73
HR (hazard ratio for stroke, pravastatin vs placebo) (adjusted (age, male, current smoking, hypertension, diabetes, BMI, baseline LDL, HDL), mode GEN, genotype GA): 0.61
HR (hazard ratio for stroke, pravastatin vs placebo) (adjusted (age, male, current smoking, hypertension, diabetes, BMI, baseline LDL, HDL), mode GEN, genotype GG): 1
HR (hazard ratio for stroke, pravastatin vs placebo) (adjusted (age, male, current smoking, hypertension, diabetes, BMI, baseline LDL, HDL), mode REC, genotype GA + AA): 0.69
HR (hazard ratio for stroke, pravastatin vs placebo) (unadjusted, mode DOM, genotype AG + AA): 0.65
HR (hazard ratio for stroke, pravastatin vs placebo) (unadjusted, mode GEN, genotype AG): 0.58
HR (hazard ratio for stroke, pravastatin vs placebo) (unadjusted, mode GEN, genotype GG): 0.91
HR (hazard ratio for stroke, pravastatin vs placebo) (unadjusted, mode REC, genotype AG + GG): 0.69
EVENTS (number of stroke events) (adjusted analysis, mode DOM, genotype GA + GG, total 1131): 54
EVENTS (number of stroke events) (adjusted analysis, mode GEN, genotype AA, total 328): 18
EVENTS (number of stroke events) (adjusted analysis, mode GEN, genotype GA, total 690): 29
EVENTS (number of stroke events) (adjusted analysis, mode GEN, genotype GG, total 441): 25
EVENTS (number of stroke events) (unadjusted, mode DOM, genotype AG + AA, total 981): 44
EVENTS (number of stroke events) (unadjusted, mode GEN, genotype AA, total 315): 17
EVENTS (number of stroke events) (unadjusted, mode GEN, genotype AG, total 666): 27
EVENTS (number of stroke events) (unadjusted, mode GEN, genotype GG, total 414): 23
EVENTS (number of stroke events) (unadjusted, mode REC, genotype AG + GG, total 1080): 50
EVENTS (rs1010 VAMP8, DOM, genotype CT + CC, TOTAL 957): 43
EVENTS (rs1010 VAMP8, GEN, genotype CC, TOTAL 271): 12
EVENTS (rs1010 VAMP8, GEN, genotype CT, TOTAL 686): 31
EVENTS (rs1010 VAMP8, GEN, genotype TT, TOTAL 455): 26
EVENTS (rs1010 VAMP8, REC, genotype CT + TT, TOTAL 1141): 57
EVENTS (rs89962 KRT4, DOM, genotype TG + TT, TOTAL 912): 46
EVENTS (rs89962 KRT4, GEN, genotype GG, TOTAL 443): 17
EVENTS (rs89962 KRT4, GEN, genotype TG, TOTAL 674): 37
EVENTS (rs89962 KRT4, GEN, genotype TT, TOTAL 238): 9
EVENTS (rs89962 KRT4, REC, genotype TG + GG, TOTAL 1117): 54
EVENTS (rs220479 ITGAE, DOM, genotype CT + CC, TOTAL 1381): 67
EVENTS (rs220479 ITGAE, GEN, genotype CC, TOTAL 973): 52
EVENTS (rs220479 ITGAE, GEN, genotype CT, TOTAL 408): 15
EVENTS (rs220479 ITGAE, GEN, genotype TT, TOTAL 46): 3
EVENTS (rs220479 ITGAE, REC, genotype CT + TT, TOTAL 454): 18
EVENTS (rs1804689 HPS1, DOM, genotype TG + TT, TOTAL 759): 40
EVENTS (rs1804689 HPS1, GEN, genotype GG, TOTAL 668): 30
EVENTS (rs1804689 HPS1, GEN, genotype TG, TOTAL 652): 36
EVENTS (rs1804689 HPS1, GEN, genotype TT, TOTAL 107): 4
EVENTS (rs1804689 HPS1, REC, genotype TG + GG, TOTAL 1320): 66
EVENTS (rs2038366, DOM, genotype GT + GG, TOTAL 1177): 57
EVENTS (rs2038366, GEN, genotype GG, TOTAL 539): 29
EVENTS (rs2038366, GEN, genotype GT, TOTAL 638): 28
EVENTS (rs2038366, GEN, genotype TT, TOTAL 151): 10
EVENTS (rs2038366, REC, genotype GT + TT, TOTAL 789): 38
EVENTS (rs3213646 EXOD1, DOM, genotype CT + CC, TOTAL 1108): 51
